# Laboratory results published in patent US10457709B2, “Antimicrobial peptides, their variants and uses” (priority 2015, dated 2019).
# Where two headings read alike, the source gives them in different places. Square brackets hold non-standard residues; d marks the D form. Peptide text beside a SMILES is read from it.
# Legend:
# [1] = tested on: MRSA strains (S. aureus COL); assay: MIC, synergistic activity with Ertapenem (4 μg/ml); type: cell-based, Staphylococcus aureus; details: Ertapenem 4 μg/ml; D-form peptide
# Description: Minimum inhibition concentrations (MICs) were determined against Escherichia coli (ATCC 25922), Staphylococcus aureus (ATCC 25923), Klebsiella pneumoniae (ATCC 10031) and Pseudomonas aeruginosa (ATCC 27853). Also clinical strains of E. coli, K. pneumoniae, E. cloacae, P. aeruginosa, Serratia marcescens, Proteus mirabilis, S. pneumoniae, Acinetobacter baumannii, A. johnsonii and S. aureus were used for MICs assays. Additionally, clinical strains of yeast including Candida albicans, C. glabrata, C. parapsilosis and C. quillermondiae were used. The susceptibility of these microorganisms to Chain peptides were determined using micro broth dilution assay. Colonies of the respective microorganism from Muller Hinton (MH) agar plates incubated overnight were suspended in MH broth media and final concentration of microorganism was adjusted to 5.0×10^5 cfu/ml. An aliquot of 10 μl of each Chain peptide, or gentamicin, tetracycline as reference antibiotics were added in differing concentrations along with 90 μl of bacterial suspension to 96 well polypropylene plates and incubated at 37° C. for 20 to 24 hours. Concentrations of Chain peptides and reference antibiotics ranged from 0.125 to 128 μg/ml and the MICs were recorded as the lowest concentration with no visual growth of bacteria. Similarly, antifungal MICs were tested in Potato dextrose broth.
# Peptides Chain 104, Chain 105, Chain 201, Chain 308, Chain 310 were tested against antibiotic-sensitive strains of S. aureus RN4220 and methicillin resistant strains of S. aureus COL (MRSA). Chain peptides comprising of either L- or D-form amino acids were tested against these bacteria, and the D-form peptides were found have better activity compared to L-form (Table 6). Synergistic activity of chain peptides along with Ertapenem (4 μg/ml) was tested to know whether it will influence the activity against MRSA strains. […] Chain 310 has the best antibacterial activity against the MRSA strains with a MIC of 0.06 & 0.03 μg/ml along with Ertapenem (4 μg/ml) for both forms of L and D-peptides (Table 6).
# [2] = tested on: Staphylococcus aureus (ATCC 25923); assay: microbe, parasite or virus in culture; type: cell-based
# Procedure, shortened: (§1)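 Inocula of 5.0×10^5 cfu/ml in MH broth were exposed to peptide at 0.125 to 128 μg/ml by microdilution.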
# [3] = tested on: Pseudomonas aeruginosa (ATCC 27853); assay: microbe, parasite or virus in culture; type: cell-based
# Procedure, shortened: as §1
# [4] = tested on: Klebsiella pneumoniae (ATCC 10031); assay: microbe, parasite or virus in culture; type: cell-based
# Procedure, shortened: as §1
# [5] = tested on: Escherichia coli (ATCC 25922); assay: microbe, parasite or virus in culture; type: cell-based
# Procedure, shortened: as §1
# [6] = tested on: Staphylococcus aureus (ATCC 25923); type: cell-based; details: Peptides 50 μg, Gentamycin 5 μg, diameter including the wells
# Description: (§2) The radial diffusion assay (RDA) was carried out as described by Andersen et al. (2010). Briefly, 30 ml of 1/10 Muller-Hinton broth (MHB) supplemented with 1% agarose and 5.0×10^5 CFU/ml S. aureus or E. coli or K. pneumoniae, P. aeruginosa cells was poured into a single-well omnitray (Nunc) and overlaid with a TSP 96-well plate. […] The peptides were also tested against Fusarium oxysporum and Verticillium dahliae, for which ⅓ potato dextrose agarose was used. To test the synergistic effect of peptides, each peptide was mixed in equimolar concentrations. Mix1 (met1-12), Mix2 (met3, 4 and 5), Mix3 (met8, 9 and 10), Mix4 (met11, 12) and Mix5 (8, 9, 10, 11, 12) were prepared and tested against E. coli and S. aureus. Gentamicin and vancomycin were included as positive controls for bacteria and amphotericin B was used as the control for fungi.
# (§3) By using rational design techniques, we have designed variants of peptides by incorporating or replacing various amino acids in the original peptides. Thus, we have designed and modified Chain 100, Chain 200 and Chain 300 with tryptophan (W), arginine (R) and lysine (K) at various positions to improve antimicrobial activity (FIGS. 4a-c and 5a-c). In some peptides we have also used other amino acids such as Leucine (L), Cysteine (C), Isoleucine (I), Phenylalanine (F) and Alanine (A). For synthesis, 32 variants and 3 original peptides were selected based on the various parameters such as positive charge, aliphatic index and instability index. Peptides variants were tested by using radial diffusion assay against Escherichia coli (ATCC 25922), Staphylococcus aureus (ATCC 25923), Klebsiella pneumoniae (ATCC 10031) and Pseudomonas aeruginosa (ATCC 27853) (FIGS. 6a-c). The zone of inhibition ranged between 10-18 mm for Escherichia coli and Staphylococcus aureus, 6-18 mm & 8-18 mm for Pseudomonas aeruginosa and Klebsiella pneumonia respectively (Table 2). For Gentamicin it was between 22-24 mm. Antifungal activity was tested for promising antibacterial peptides (Chains 104, 105, 109, 201, 204, 306, 307, 308, 310) against Aspergillus flavus (DSM 1959) and Penicillium chrysogenum (DSM 1075). All these peptides has activity at a concentration of 20 μg, Amphotericin B was used as a positive control at 20 μg (FIG. 7).
# [7] = tested on: Pseudomonas aeruginosa (ATCC 27853); type: cell-based; details: Peptides 50 μg, Gentamycin 5 μg, diameter including the wells
# Description: as §2, §3
# [8] = tested on: Klebsiella pneumoniae (ATCC 10031); type: cell-based; details: Peptides 50 μg, Gentamycin 5 μg, diameter including the wells
# Description: as §2, §3
# [9] = tested on: Escherichia coli (ATCC 25922); type: cell-based; details: Peptides 50 μg, Gentamycin 5 μg, diameter including the wells
# Description: as §2, §3
molecule,measurement,setting,value
CC(C)C[C@@H](NC(=O)[C@@H](CCCCN)NC(=O)[C@@H](CCCCN)NC(=O)[C@@H](Cc1ccccc1)NC(=O)[C@@H](CC(C)C)NC(=O)[C@@H](Cc1c[nH]c2ccccc12)NC(=O)[C@@H](CCCNC(=N)N)NC(=O)[C@@H](Cc1c[nH]c2ccccc12)NC(=O)[C@@H](CCCCN)NC(=O)[C@@H](CCCNC(=N)N)NC(=O)[C@H](N)CCCCN)C(=O)O [Chain310D] (H-[dK][dR][dK][dW][dR][dW][dL][dF][dK][dK][dL]-OH),MIC against MRSA strains along with Ertapenem,[1],0.03 µg/mL
Gentamicin [reference compound],"Minimum inhibitory concentration, Staphylococcus aureus (ATCC 25923)",[2],0.25 µg/mL
same,"Minimum inhibitory concentration, Pseudomonas aeruginosa (ATCC 27853)",[3],0.25 µg/mL
same,"Minimum inhibitory concentration, Klebsiella pneumoniae (ATCC 10031)",[4],0.25 µg/mL
same,"Minimum inhibitory concentration, Escherichia coli (ATCC 25922)",[5],1 µg/mL
same,"Inhibition zone, Staphylococcus aureus",[6],22-24 mm
same,"Inhibition zone, Staphylococcus aureus",[6]; listed as Gentamycin,24 mm
same,"Inhibition zone, Pseudomonas aeruginosa",[7],22-24 mm
same,"Inhibition zone, Pseudomonas aeruginosa",[7]; listed as Gentamycin,24 mm
same,"Inhibition zone, Klebsiella pneumoniae",[8],22-24 mm
same,"Inhibition zone, Klebsiella pneumoniae",[8]; listed as Gentamycin,22 mm
same,"Inhibition zone, Escherichia coli",[9],22-24 mm
same,"Inhibition zone, Escherichia coli",[9]; listed as Gentamycin,22 mm
